# According to BindingDB's records for doi:10.1016/S1074-5521(02)00184-9 (The Scripps Research Institute, 2002):
# pIC50, pKi: −log10 of the molar value.
# Biological target: HIV-1 protease (Human immunodeficiency virus, UniProt O90785)
# Assay: Inhibition Assay
# Conditions: pH 5.6; 37 °C
# Excerpt: Inhibition of HIV-protease activity for selected acids at P3-P3' positions.
# Sequence of HIV-1 protease (O90785 whole entry): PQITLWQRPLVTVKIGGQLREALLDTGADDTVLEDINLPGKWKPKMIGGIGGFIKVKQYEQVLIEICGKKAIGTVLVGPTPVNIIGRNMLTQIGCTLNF
SMILES,pKi,pIC50
CC(C)[C@H](NC(=O)OCc1ccccc1)C(=O)N[C@@H](Cc1ccccc1)[C@@H](O)[C@H](O)[C@H](Cc1ccccc1)NC(=O)[C@@H](NC(=O)OCc1ccccc1)C(C)C,8.82,
CC(C)[C@H](NC(=O)Cc1c[nH]c2ccccc12)C(=O)N[C@@H](Cc1ccccc1)[C@@H](O)[C@H](O)[C@H](Cc1ccccc1)NC(=O)[C@@H](NC(=O)Cc1c[nH]c2ccccc12)C(C)C [P3-P3' Entry 1],,7.77
CC(C)[C@H](NC(=O)CCc1c[nH]c2ccccc12)C(=O)N[C@@H](Cc1ccccc1)[C@@H](O)[C@H](O)[C@H](Cc1ccccc1)NC(=O)[C@@H](NC(=O)CCc1c[nH]c2ccccc12)C(C)C [P3-P3' Entry 2],,8.00
CC(C)[C@H](NC(=O)CCCc1c[nH]c2ccccc12)C(=O)N[C@@H](Cc1ccccc1)[C@@H](O)[C@H](O)[C@H](Cc1ccccc1)NC(=O)[C@@H](NC(=O)CCCc1c[nH]c2ccccc12)C(C)C [P3-P3' Entry 3],,7.85
CC(C)[C@H](NC(=O)c1cc(O)c2ccccc2n1)C(=O)N[C@@H](Cc1ccccc1)[C@@H](O)[C@H](O)[C@H](Cc1ccccc1)NC(=O)[C@@H](NC(=O)c1cc(O)c2ccccc2n1)C(C)C [P3-P3' Entry 4],,7.72
CCC(C)[C@H](NC(=O)c1ccc2cccc(O)c2n1)C(=O)N[C@@H](Cc1ccccc1)[C@@H](O)[C@H](O)[C@H](Cc1ccccc1)NC(=O)[C@@H](NC(=O)c1ccc2cccc(O)c2n1)C(C)C (stereo partly drawn) [P3-P3' Entry 5],,< 7.30
CC(C)[C@H](NC(=O)c1ccc2ccccc2n1)C(=O)N[C@@H](Cc1ccccc1)[C@@H](O)[C@H](O)[C@H](Cc1ccccc1)NC(=O)[C@@H](NC(=O)c1ccc2ccccc2n1)C(C)C [P3-P3' Entry 6],,8.00
CC(C)[C@H](NC(=O)COc1ccc2ccccc2c1)C(=O)N[C@@H](Cc1ccccc1)[C@@H](O)[C@H](O)[C@H](Cc1ccccc1)NC(=O)[C@@H](NC(=O)COc1ccc2ccccc2c1)C(C)C [P3-P3' Entry 7],,8.00
CC(C)[C@H](NC(=O)c1ccc(-c2ccc([N+](=O)[O-])cc2)o1)C(=O)N[C@@H](Cc1ccccc1)[C@@H](O)[C@H](O)[C@H](Cc1ccccc1)NC(=O)[C@@H](NC(=O)c1ccc(-c2ccc([N+](=O)[O-])cc2)o1)C(C)C [P3-P3' Entry 8],8.70,8.22
CC(C)[C@H](NC(=O)c1ccc([N+](=O)[O-])o1)C(=O)N[C@@H](Cc1ccccc1)[C@@H](O)[C@H](O)[C@H](Cc1ccccc1)NC(=O)[C@@H](NC(=O)c1ccc([N+](=O)[O-])o1)C(C)C [P3-P3' Entry 9],,7.70
CC(C)[C@H](NC(=O)c1ccc(-c2c(Cl)cc([N+](=O)[O-])cc2Cl)o1)C(=O)N[C@@H](Cc1ccccc1)[C@@H](O)[C@H](O)[C@H](Cc1ccccc1)NC(=O)[C@@H](NC(=O)c1ccc(-c2c(Cl)cc([N+](=O)[O-])cc2Cl)o1)C(C)C [P3-P3' Entry 10],,< 7.30
CC(C)[C@H](NC(=O)c1ccc(-c2cc(C(F)(F)F)ccc2Cl)o1)C(=O)N[C@@H](Cc1ccccc1)[C@@H](O)[C@H](O)[C@H](Cc1ccccc1)NC(=O)[C@@H](NC(=O)c1ccc(-c2cc(C(F)(F)F)ccc2Cl)o1)C(C)C [P3-P3' Entry 11],,< 7.30
CC(C)[C@H](NC(=O)c1ccc(-c2ccc([N+](=O)[O-])cc2[N+](=O)[O-])o1)C(=O)N[C@@H](Cc1ccccc1)[C@@H](O)[C@H](O)[C@H](Cc1ccccc1)NC(=O)[C@@H](NC(=O)c1ccc(-c2ccc([N+](=O)[O-])cc2[N+](=O)[O-])o1)C(C)C [P3-P3' Entry 12],,8.00
CC(C)[C@H](NC(=O)c1ccc(C(=O)c2ccccc2)o1)C(=O)N[C@@H](Cc1ccccc1)[C@@H](O)[C@H](O)[C@H](Cc1ccccc1)NC(=O)[C@@H](NC(=O)c1ccc(C(=O)c2ccccc2)o1)C(C)C [P3-P3' Entry 13],,8.00
CC(C)[C@H](NC(=O)c1ccc(CN2CCCCC2)o1)C(=O)N[C@@H](Cc1ccccc1)[C@@H](O)[C@H](O)[C@H](Cc1ccccc1)NC(=O)[C@@H](NC(=O)c1ccc(CN2CCCCC2)o1)C(C)C [P3-P3' Entry 14],,< 7.30
CC(C)[C@H](NC(=O)c1ccc(CN2CCOCC2)o1)C(=O)N[C@@H](Cc1ccccc1)[C@@H](O)[C@H](O)[C@H](Cc1ccccc1)NC(=O)[C@@H](NC(=O)c1ccc(CN2CCOCC2)o1)C(C)C [P3-P3' Entry 15],,< 7.30
CC(C)[C@H](NC(=O)c1ccc(-c2ccc(Cl)cc2)o1)C(=O)N[C@@H](Cc1ccccc1)[C@@H](O)[C@H](O)[C@H](Cc1ccccc1)NC(=O)[C@@H](NC(=O)c1ccc(-c2ccc(Cl)cc2)o1)C(C)C [P3-P3' Entry 16],,8.00
